The values that follow come from patent US10669283B2, “Compound and pharmacologically acceptable salt thereof” (MEIJI SEIKA PHARMA CO., LTD., priority 2016, dated 2020).

Where only a bound is given, the exact number is not on record here.

The test has as its system PDE4. The test is described as follows: PDE4 inhibition, scintillation proximity assay (SPA).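 Note: A below 100 nM B 100 to below 1000 nM C 1000 nM or more.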 It is filed as biochemical. The note with it: scintillation proximity assay (SPA); evaluated as classes A, B, C; read-out: PDE4 Inhibitory Activity (concentration for the inhibition rate of 50%). The protocol: The PDE4 inhibitory activity was measured using scintillation proximity assay (SPA) as follows. A sample compound dissolved in dimethyl sulfoxide was diluted 1:10 in reaction buffer solution which contained 50 mM of Tris-HCl with pH 7.4, 8.3 mM of MgCl2, 1.7 mM of EGTA, and 3 mg/mL of bovine serum albumin (BSA). Then, 10 μL of the diluted solution was added in a 96-well assay plate. Moreover, 50 μL of PDE4 diluted 1:375 in the reaction buffer solution was added, and then 40 μL of [2,8-^3H]-adenosine-3′,5′-cyclic phosphate triethylammonium salt diluted 1:1000 in the reaction buffer solution was added. The mixture was allowed to stand at room temperature for 120 minutes. Thereafter, […] of RNA binding YSi-SPA beads suspension containing ZnSO4 was added and the mixture was allowed to stand at room temperature for 15 minutes, followed by adsorption of the enzyme reaction product to the beads. After that, the radioactivity was measured using a liquid scintillation counter for a 96-well plate. The mixture without the enzyme preparation added but only the reaction buffer solution added is a blank, and the mixture with the enzyme preparation added and only dimethyl sulfoxide added instead of the sample solution is a control.
Turning to `CC(C)(O)C(F)(F)Oc1ccc(-c2cscn2)c2oc(N3CC4CCC(C3)N4)nc12` [Example 308, 1-((2-(3,8-Diazabicyclo[3.2.1]octan-3-yl)-7-(thiazol-4-yl)benzo[d]oxazol-4-yl)oxy)-1,1-difluoro-2-methylpropan-2-ol], the IC50 is less than 100 nM.
For the molecule `OCc1ccc(-c2nccs2)c2oc(N3CC4CCC(C3)N4)nc12` [Example 132, (2-(3,8-Diazabicyclo[3.2.1]octan-3-yl)-7-(thiazol-2-yl)benzo[d]oxazol-4-yl)methanol], the IC50 was less than 100 nM.
`CC(C)(O)COc1ccc(-c2nccs2)c2oc(N3CC4CCC(C3)N4)nc12` [Example 264, 1-((2-(3,8-Diazabicyclo[3.2.1]octan-3-yl)-7-(thiazol-2-yl)benzo[d]oxazol-4-yl)oxy)-2-methylpropan-2-ol]: the IC50 was less than 100 nM.
To `COC(c1ccc(-c2nccs2)c2oc(N3CC4CC(C3)N4)nc12)C(F)(F)F` (centres unmarked) [Example 122, 2-(3,6-Diazabicyclo[3.1.1]heptan-3-yl)-7-(thiazol-2-yl)-4-(2,2,2-trifluoro-1-methoxyethyl)benzo[d]oxazole] belongs less than 100 nM.
To `COC1(c2cc(-c3nccs3)c3oc(N4CC5CC(C4)N5)nc3c2OC(F)(F)F)CC1` [Example 283, 2-(3,6-Diazabicyclo[3.1.1]heptan-3-yl)-5-(1-methoxycyclopropyl)-7-(thiazol-2-yl)-4-(trifluoromethoxy)benzo[d]oxazole] belongs less than 100 nM.
To `CC(C)C(O)c1cc(-c2nccs2)c2oc(N3CC4CCC(C3)N4)nc2c1OC(F)(F)F` (centres unmarked) [Example 205, 1-(2-(3,8-Diazabicyclo[3.2.1]octan-3-yl)-7-(thiazol-2-yl)-4-(trifluoromethoxy)benzo[d]oxazol-5-yl)-2-methylpropan-1-ol] belongs less than 100 nM; to `C[S+]([O-])c1cc(-c2nccs2)c2oc(N3CC4CCCC(C3)N4)nc2c1` (centres unmarked) [Example 44, 2-(3,9-Diazabicyclo[3.3.1]nonan-3-yl)-5-(methylsulfinyl)-7-(thiazol-2-yl)benzo[d]oxazole], less than 100 nM.
For `NS(=O)(=O)c1cc(-c2nccs2)c2oc(N3CC4CC(C3)N4)nc2c1` [Example 58, 2-(3,6-Diazabicyclo[3.1.1]heptan-3-yl)-7-(thiazol-2-yl)benzo[d]oxazole-5-sulfonamide], the IC50 is less than 100 nM.
For `FC(F)(F)c1ccc(-c2nccs2)c2oc(N3CC4CCCC(C3)N4)nc12` [Example 33, 2-(3,9-Diazabicyclo[3.3.1]nonan-3-yl)-7-(thiazol-2-yl)-4-(trifluoromethyl)benzo[d]oxazole], the IC50 is less than 100 nM.
For `CC(C)(O)c1cc(-c2nccs2)c2oc(N3CC4CC(C3)N4)nc2c1` [Example 173, 2-(2-(3,6-Diazabicyclo[3.1.1]heptan-3-yl)-7-(thiazol-2-yl)benzo[d]oxazol-5-yl)propan-2-ol], the IC50 is less than 100 nM.
To `OC(O)(c1cc(-c2nccs2)c2oc(N3CC4CCC(C3)N4)nc2c1)C(F)(F)F` [Example 157, 1-(2-(3,8-Diazabicyclo[3.2.1]octan-3-yl)-7-(thiazol-2-yl)benzo[d]oxazol-5-yl)-2,2,2-trifluoroethane-1,1-diol] belongs less than 100 nM; to `C=CCOc1cc(-c2nccs2)c2oc(N3CC4CCC(C3)N4)nc2c1` [Example 72, 5-(Allyloxy)-2-(3,8-diazabicyclo[3.2.1]octan-3-yl)-7-(thiazol-2-yl)benzo[d]oxazole], less than 100 nM; to `NS(=O)(=O)c1cc(-c2nccs2)c2oc(N3CC4CCCC(C3)N4)nc2c1` [Example 59, 2-(3,9-Diazabicyclo[3.3.1]nonan-3-yl)-7-(thiazol-2-yl) benzo[d]oxazole-5-sulfonamide], less than 100 nM.
To `CC(C)(O)c1ccc(-c2nccs2)c2oc(N3CC4CCC(C3)N4)nc12` [Example 247, 2-(2-(3,8-Diazabicyclo[3.2.1]octan-3-yl)-7-(thiazol-2-yl)benzo[d]oxazol-4-yl)propan-2-ol] belongs less than 100 nM.
On to `CC(O)(c1ccc(-c2nccs2)c2oc(N3CC4CCC(C3)N4)nc12)C(F)F` (centres unmarked) [Example 129, 2-(2-(3,8-Diazabicyclo[3.2.1]octan-3-yl)-7-(thiazol-2-yl)benzo[d]oxazol-4-yl)-1,1-difluoropropan-2-ol], for which the IC50 is less than 100 nM.
With `OCCOC(c1ccc(-c2nccs2)c2oc(N3CC4CC(C3)N4)nc12)C(F)(F)F` (centres unmarked) [Example 227, 2-(1-(2-(3,6-Diazabicyclo[3.1.1]heptan-3-yl)-7-(thiazol-2-yl)benzo[d]oxazol-4-yl)-2,2,2-trifluoroethoxy)ethan-1-ol], the IC50 is less than 100 nM.
On to `N#CC1CC(Oc2ccc(-c3nccs3)c3oc(N4CC5CC(C4)N5)nc23)C1` (centres unmarked) [Example 266, 3-((2-(3,6-Diazabicyclo[3.1.1]heptan-3-yl)-7-(thiazol-2-yl)benzo[d]oxazol-4-yl)oxy)cyclobutane-1-carbonitrile], for which the IC50 was less than 100 nM.
On to `C[S+]([O-])c1cc(-c2nccs2)c2oc(N3CC4CCC(C3)N4)nc2c1` (centres unmarked) [Example 42, 2-(3,8-Diazabicyclo[3.2.1]octan-3-yl)-5-(methylsulfinyl)-7-(thiazol-2-yl)benzo[d]oxazole], for which the IC50 is less than 100 nM.
Consider `FC(F)(F)c1c(Cl)cc(-c2nccs2)c2oc(N3CC4COCC(C3)N4)nc12` [Example 19, 7-(5-Chloro-7-(thiazol-2-yl)-4-(trifluoromethyl)benzo[d]oxazol-2-yl)-3-oxa-7,9-diazabicyclo[3.3.1]nonane], for which the IC50 is less than 100 nM.
As for `OCc1cc(-c2nccs2)c2oc(N3CC4CCC(C3)N4)nc2c1C(F)(F)F` [Example 170, (2-(3,8-Diazabicyclo[3.2.1]octan-3-yl)-7-(thiazol-2-yl)-4-(trifluoromethyl)benzo[d]oxazol-5-yl)methanol], the IC50 is less than 100 nM.
As for `OCC(F)(F)OC(c1ccc(-c2nccs2)c2oc(N3CC4CC(C3)N4)nc12)C(F)(F)F` (centres unmarked) [Example 258, 2-(1-(2-(3,6-Diazabicyclo[3.1.1]heptan-3-yl)-7-(thiazol-2-yl)benzo[d]oxazol-4-yl)-2,2,2-trifluoroethoxy)-2,2-difluoroethan-1-ol], the IC50 was less than 100 nM.
With `COC(c1cc(-c2nccs2)c2oc(N3CC4CCC(C3)N4)nc2c1)C(F)(F)F` (centres unmarked) [Example 142, 2-(3,8-Diazabicyclo[3.2.1]octan-3-yl)-7-(thiazol-2-yl)-5-(2,2,2-trifluoro-1-methoxyethyl)benzo[d]oxazole] the figure was less than 100 nM; with `OC(O)(c1cc(-c2nccs2)c2oc(N3CC4CCCC(C3)N4)nc2c1)C(F)(F)F` [Example 156, 1-(2-(3,9-Diazabicyclo[3.3.1]nonan-3-yl)-7-(thiazol-2-yl)benzo[d]oxazol-5-yl)-2,2,2-trifluoroethane-1,1-diol], less than 100 nM.
Regarding `OCC(CO)COc1cc(-c2nccs2)c2oc(N3CC4CCC(C3)N4)nc2c1` [Example 71, 2-(((2-(3,8-Diazabicyclo[3.2.1]octan-3-yl)-7-(thiazol-2-yl)benzo[d]oxazol-5-yl)oxy)methyl)propane-1,3-diol], the IC50 was less than 100 nM.
Turning to `COC(C)(c1cc(-c2nccs2)c2oc(N3CC4CCC(C3)N4)nc2c1)C(F)(F)F` (centres unmarked) [Example 102, 2-(3,8-Diazabicyclo[3.2.1]octan-3-yl)-7-(thiazol-2-yl)-5-(1,1,1-trifluoro-2-methoxypropan-2-yl)benzo[d]oxazole], the IC50 is less than 100 nM.
Consider `COc1ccc(-c2nccs2)c2oc(N3CC4CCCC(C3)N4)nc12` [Example 77, 2-(3,9-Diazabicyclo[3.3.1]nonan-3-yl)-4-methoxy-7-(thiazol-2-yl)benzo[d]oxazole], for which the IC50 was less than 100 nM.
With `OC(c1ccc(-c2nccs2)c2oc(N3CC4CC(C3)N4)nc12)C(F)(F)F` (centres unmarked) [Example 121, 1-(2-(3,6-Diazabicyclo[3.1.1]heptan-3-yl)-7-(thiazol-2-yl)benzo[d]oxazol-4-yl)-2,2,2-trifluoroethan-1-ol] the figure was less than 100 nM; with `OCC(F)(F)Oc1ccc(-c2cscn2)c2oc(N3CC4CCC(C3)N4)nc12` [Example 312, 2-((2-(3,8-Diazabicyclo[3.2.1]octan-3-yl)-7-(thiazol-4-yl)benzo[d]oxazol-4-yl)oxy)-2,2-difluoroethan-1-ol], less than 100 nM.
To `OC(c1cc(-c2nccs2)c2oc(N3CC4CCC(C3)N4)nc2c1OC(F)(F)F)C(F)F` (centres unmarked) [Example 276, 1-(2-(3,8-Diazabicyclo[3.2.1]octan-3-yl)-7-(thiazol-2-yl)-4-(trifluoromethoxy)benzo[d]oxazol-5-yl)-2,2-difluoroethan-1-ol] belongs less than 100 nM.
With `CC(C)(O)CC(F)(F)Oc1ccc(-c2nccs2)c2oc(N3CC4CC(C3)N4)nc12` [Example 295, 4-((2-(3,6-Diazabicyclo[3.1.1]heptan-3-yl)-7-(thiazol-2-yl)benzo[d]oxazol-4-yl)oxy)-4,4-difluoro-2-methylbutan-2-ol] the figure was less than 100 nM; with `CC(O)c1cc(-c2nccs2)c2oc(N3CC4CCC(C3)N4)nc2c1OC(F)(F)F` (centres unmarked) [Example 202, 1-(2-(3,8-Diazabicyclo[3.2.1]octan-3-yl)-7-(thiazol-2-yl)-4-(trifluoromethoxy)benzo[d]oxazol-5-yl)ethan-1-ol], less than 100 nM.
As for `FC(F)(F)c1c(Cl)cc(-n2cccn2)c2oc(N3CC4CCC(C3)N4)nc12` [Example 15, 2-(3,8-Diazabicyclo[3.2.1]octan-3-yl)-5-chloro-7-(1H-pyrazol-1-yl)-4-(trifluoromethyl)benzo[d]oxazole], the IC50 was less than 100 nM.
